Source: PubChem BioAssay AID330 (DTP/NCI, 2004)
Where “and” joins values, the source holds several entries; their conditions need not be identical. Equal entries are not always repeated. Toxic doses and inconclusive results are not listed. How the source made its calls: active means survival T/C of 150% or more; inactive means T/C below 125% in these data.

System: P388 leukemia ip, CD2F1 mice, survival T/C
Assay: NCI In Vivo Anticancer Drug Screen. Data for tumor model P388 Leukemia (intraperitoneal) in CD2F1 (CDF1) mice
Settings: endpoint: median survival time, higher = longer survival
Summary of the method: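 Mice carrying the transplanted tumor received test compound or vehicle. Survival was recorded in each group, and the value is the treated-group measurement divided by that of the vehicle-treated control group.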

[1] = dose: 50.0 mg/kg/injection, schedule: Q01DX009 (ip), vehicle: Klucel (hydroxypropylcellulose) (HPC)
[2] = dose: 100.0 mg/kg/injection, schedule: Q01DX009 (ip), vehicle: Klucel (hydroxypropylcellulose) (HPC)
[3] = dose: 100.0 mg/kg/injection, schedule: Q04DX003 (ip), vehicle: Klucel (hydroxypropylcellulose) (HPC)
[4] = dose: 200.0 mg/kg/injection, schedule: Q01DX009 (ip), vehicle: Klucel (hydroxypropylcellulose) (HPC)
[5] = dose: 200.0 mg/kg/injection, schedule: Q04DX003 (ip), vehicle: Klucel (hydroxypropylcellulose) (HPC)
[6] = dose: 400.0 mg/kg/injection, schedule: Q04DX003 (ip), vehicle: Klucel (hydroxypropylcellulose) (HPC)
[7] = dose: 25.0 mg/kg/injection, schedule: Q01DX005 (ip), vehicle: Klucel (hydroxypropylcellulose) (HPC)
[8] = dose: 12.5 mg/kg/injection, schedule: Q01DX005 (ip), vehicle: saline
[9] = dose: 50.0 mg/kg/injection, schedule: Q01DX005 (ip), vehicle: saline
[10] = dose: 50.0 mg/kg/injection, schedule: Q01DX009 (ip), vehicle: saline with Tween-80
[11] = dose: 100.0 mg/kg/injection, schedule: Q01DX009 (ip), vehicle: saline with Tween-80
[12] = dose: 200.0 mg/kg/injection, schedule: Q01DX009 (ip), vehicle: saline with Tween-80
[13] = dose: 50.0 mg/kg/injection, schedule: Q01DX009 (ip), vehicle: saline
[14] = dose: 100.0 mg/kg/injection, schedule: Q01DX009 (ip), vehicle: saline
[15] = dose: 50.0 mg/kg/injection, schedule: Q01DX005 (ip), vehicle: saline with Tween-80
[16] = dose: 50.0 mg/kg/injection, schedule: Q01DX005 (ip), vehicle: Klucel (hydroxypropylcellulose) (HPC)
[17] = dose: 100.0 mg/kg/injection, schedule: Q01DX005 (ip), vehicle: Klucel (hydroxypropylcellulose) (HPC)
[18] = dose: 200.0 mg/kg/injection, schedule: Q01DX005 (ip), vehicle: Klucel (hydroxypropylcellulose) (HPC)
[19] = dose: 12.5 mg/kg/injection, schedule: Q01DX009 (ip), vehicle: Klucel (hydroxypropylcellulose) (HPC)
[20] = dose: 25.0 mg/kg/injection, schedule: Q01DX009 (ip), vehicle: Klucel (hydroxypropylcellulose) (HPC)
[21] = dose: 100.0 mg/kg/injection, schedule: Q01DX005 (ip), vehicle: saline
[22] = dose: 200.0 mg/kg/injection, schedule: Q01DX005 (ip), vehicle: saline

Measured: T/C

O=C(c1ccccc1)C(c1ccccc1)C(Cl)c1ccccc1 (stereo unspecified)
inactive: [1] 100 % of control | [2] 97 % of control | [3] 98 % of control | [4] 99 % of control | [5] 100 % of control | [6] 100 % of control

COC(=O)/C=C1\C=CC(=O)OC1O (stereo unspecified)
inactive: dose: 6.25 mg/kg/injection, schedule: Q01DX005 (ip), vehicle: Klucel (hydroxypropylcellulose) (HPC) 102 % of control | dose: 12.5 mg/kg/injection, schedule: Q01DX005 (ip), vehicle: Klucel (hydroxypropylcellulose) (HPC) 103 % of control | [7] 113 % of control

O=C(c1ccccc1)C(CN1CCCC1)CN1CCCC1
inactive: [8] 100 % of control | dose: 25.0 mg/kg/injection, schedule: Q01DX005 (ip), vehicle: saline 97 % of control | [9] 100 % of control and 102 % of control

CC(C)(O)C1CC(=O)C(C)(C2C(O)CC3(C)C4CC=C5C(CCC(O)C5(C)C)C4(C)C(=O)CC23C)O1 (stereo unspecified)
inactive: dose: 9.63 mg/kg/injection, schedule: Q01DX005 (ip), vehicle: saline + alcohol 113 % of control | dose: 19.25 mg/kg/injection, schedule: Q01DX005 (ip), vehicle: saline + alcohol 102 % of control | dose: 38.5 mg/kg/injection, schedule: Q01DX005 (ip), vehicle: saline + alcohol 102 % of control | dose: 77.0 mg/kg/injection, schedule: Q01DX005 (ip), vehicle: saline + alcohol 97 % of control

O=C(/C(=C(\C(=O)c1ccccc1)c1ccccc1)c1ccccc1)c1ccccc1
inactive: [10] 99 % of control | [11] 92 % of control | [12] 87 % of control | dose: 400.0 mg/kg/injection, schedule: Q01DX009 (ip), vehicle: saline with Tween-80 86 % of control

CC1(c2ccccc2)c2ccccc2N(c2ccccc2)C(=O)C1O (stereo unspecified)
inactive: [3] 101 % of control and 109 % of control | [5] 100 % of control and 107 % of control | [6] 100 % of control and 109 % of control

Nc1ncncc1-c1ccc(F)cc1
inactive: [13] 103 % of control | [14] 101 % of control

C#CC1(O)CC(c2ccccc2)N(C)C(c2ccccc2)C1 (stereo unspecified)
inactive: dose: 12.5 mg/kg/injection, schedule: Q01DX005 (ip), vehicle: saline with Tween-80 93 % of control | dose: 25.0 mg/kg/injection, schedule: Q01DX005 (ip), vehicle: saline with Tween-80 98 % of control | [15] 98 % of control and 87 % of control

c1ccc2sc(SSN3CC4CCC(CC4)C3)nc2c1
inactive: dose: 12.5 mg/kg/injection, schedule: Q01DX009 (ip), vehicle: saline with Tween-80 102 % of control | dose: 25.0 mg/kg/injection, schedule: Q01DX009 (ip), vehicle: saline with Tween-80 107 % of control | [10] 123 % of control | [11] 115 % of control

CCCCC1C(C#N)C(=O)NC(=O)C1C#N (stereo unspecified)
inactive: [1] 100 % of control | [2] 95 % of control | [4] 99 % of control

COc1cc(NCC(O)CN2C(C)CCCC2C)c2ncccc2c1 (stereo unspecified)
inactive: dose: 6.0 mg/kg/injection, schedule: Q01DX005 (ip), vehicle: saline 98 % of control | [8] 100 % of control

N=c1ccn2c(n1)OC1C(O)C(CCl)OC12 (stereo unspecified)
inactive: dose: 6.25 mg/kg/injection, schedule: Q01DX009 (ip), vehicle: saline 108 % of control | dose: 12.5 mg/kg/injection, schedule: Q01DX009 (ip), vehicle: saline 111 % of control | dose: 25.0 mg/kg/injection, schedule: Q01DX009 (ip), vehicle: saline 106 % of control and 92 % of control | [13] 103 % of control and 106 % of control | [14] 100 % of control and 107 % of control | dose: 200.0 mg/kg/injection, schedule: Q01DX009 (ip), vehicle: saline 110 % of control and 117 % of control

Cc1ccc2c(c1)CN(C)c1ccc(C)cc1CN2C
inactive: dose: 60.0 mg/kg/injection, schedule: Q01DX005 (ip), vehicle: saline with Tween-80 98 % of control | dose: 120.0 mg/kg/injection, schedule: Q01DX005 (ip), vehicle: saline with Tween-80 100 % of control | dose: 240.0 mg/kg/injection, schedule: Q01DX005 (ip), vehicle: saline with Tween-80 98 % of control

O=C(NNC1CCN(Cc2ccccc2)CC1)c1ccccc1
inactive: dose: 10.0 mg/kg/injection, schedule: Q04DX003 (ip), vehicle: saline with Tween-80 100 % of control | dose: 20.0 mg/kg/injection, schedule: Q04DX003 (ip), vehicle: saline with Tween-80 95 % of control

Nc1ccc2cc(S(=O)(=O)O)c(N=Nc3ccc(-c4ccc(N=Nc5ccc(O)c(C(=O)O)c5)cc4)cc3)c(O)c2c1
inactive: [16] 92 % of control | [17] 97 % of control | [18] 95 % of control

CC(=O)OC1CC(OC(C)=O)C(OC(C)=O)C(CS[As](C)C)O1 (stereo unspecified)
inactive: [10] 99 % of control | [11] 99 % of control | [12] 96 % of control

C=CCSc1nc2ccc(N3C(=O)CCC3=O)cc2s1
inactive: [19] 105 % of control | [20] 103 % of control | [1] 101 % of control and 102 % of control | [2] 92 % of control | [4] 89 % of control

O=C(O)/C=C(/C(=O)O)C12CCN3CC4=CCOC5CC(=O)NC1C5C4CC32 (stereo unspecified)
inactive: dose: 60.0 mg/kg/injection, schedule: Q01DX005 (ip), vehicle: Klucel (hydroxypropylcellulose) (HPC) 97 % of control | dose: 120.0 mg/kg/injection, schedule: Q01DX005 (ip), vehicle: Klucel (hydroxypropylcellulose) (HPC) 106 % of control | dose: 240.0 mg/kg/injection, schedule: Q01DX005 (ip), vehicle: Klucel (hydroxypropylcellulose) (HPC) 110 % of control

C=CSS/C(=C/N(C=O)Cc1cnc(C)nc1N)CCO
inactive: [7] 108 % of control | [16] 108 % of control | [17] 102 % of control | [18] 117 % of control

Cc1c(C)c2ccc3occc(=O)c3c2oc1=O
inactive: [15] 102 % of control | dose: 100.0 mg/kg/injection, schedule: Q01DX005 (ip), vehicle: saline with Tween-80 101 % of control | dose: 200.0 mg/kg/injection, schedule: Q01DX005 (ip), vehicle: saline with Tween-80 100 % of control

COc1ccc(Cc2nnc(C)c3c(C)[nH]nc23)cc1
inactive: [1] 91 % of control | [2] 91 % of control | [4] 86 % of control

Cc1ccc(CSCc2c(CSCc3ccc(C)cc3)c(CSCc3ccc(C)cc3)c(CSCc3ccc(C)cc3)c(CSCc3ccc(C)cc3)c2CSCc2ccc(C)cc2)cc1
inactive: [10] 92 % of control | [11] 97 % of control | [12] 86 % of control

O=S(Cl)C(Cl)=C(Cl)Cl (stereo unspecified)
inactive: [16] 106 % of control | [17] 104 % of control | [18] 103 % of control

CN1NC(C2NN(C)C(=O)N(C)N2)NN(C)C1=O
inactive: [9] 102 % of control | [21] 102 % of control | [22] 107 % of control

CCOC(=O)C1=C(C)OC(C)(OC(C)=O)C1=O (stereo unspecified)
inactive: [9] 90 % of control | [21] 103 % of control | [22] 105 % of control

CC(=O)c1cc([N+](=O)[O-])c(N)s1
inactive: [19] 111 % of control | [20] 111 % of control | [1] 95 % of control | [2] 107 % of control

COc1ncnc2nc(Cl)[nH]c12
inactive: [16] 100 % of control | [17] 102 % of control

O=C(CI)Nc1ccc2[nH]c(=O)cc(C(=O)O)c2c1
inactive: [7] 100 % of control | [16] 101 % of control | [17] 108 % of control

CCCCCCCCCC(O)CCCCCCCCC
inactive: dose: 100.0 mg/kg/injection, schedule: Q04DX003 (ip), vehicle: other 100 % of control | dose: 200.0 mg/kg/injection, schedule: Q04DX003 (ip), vehicle: other 90 % of control | dose: 400.0 mg/kg/injection, schedule: Q04DX003 (ip), vehicle: other 90 % of control
